# Results reported in patent US8093231B2, “Sulfonylethyl phosphorodiamidates” (Telik, Inc., priority 2004, dated 2012).
# Structures can show the parent of a compound that is named as a salt. Where two headings read alike, the source gives them in different places.
# Experiments:
# [1] = tested on: ovarian, breast, non-small cell lung, and colorectal cancers; details: cited from earlier work
# [2] = tested on: M7609 engineered to have high, medium, and low levels of GST P1-1; details: murine xenografts; cited from earlier work
# [3] = tested on: MX-1, DLD-1 and LNCap cells; test: Cytotoxicity/growth inhibition assay, cell line not specified for the statement
# Excerpt: The human cancer cell lines DLD-1 (colorectal adenocarcinoma), LNCap (prostate carcinoma), and OVCAR-3 (ovarian carcinoma) were obtained from the American Type Culture Collection, Manassas, Va., U.S.A., and HL-60 (promyeloid myelocytic leukemia), MX-1 (breast carcinoma), P388, and P388ADR from the National Cancer Institute, Bethesda, Md., U.S.A. Carboplatin, doxorubicin, and melphalan were obtained from Sigma-Aldrich Chemical Company, St. Louis, Mo., U.S.A. The CellTiter-Glo assay kit was obtained from Promega Corporation, Madison, Wis., U.S.A., and the Cellular DNA Cytometric Analysis Reagent Kit from Roche Diagnostics Corporation, Indianapolis, Ind., U.S.A. Lambda DNA was obtained from New England Biolabs, Beverly, Mass., U.S.A., and SYBR-Gold from Molecular Probes, Inc., Eugene, Oreg., U.S.A. The DNeasy Tissue Kit was obtained from Qiagen Inc., Valencia, Calif., U.S.A., and AmpliTaq Gold DNA polymerase and PCR reagents from Applied Biosystems, Foster City, Calif., U.S.A. All products were used in accordance with manufacturer's directions. […] The extent of cell growth was expressed as a percentage of the signal from the solvent control wells.
# Log-phase cells were trypsinized, collected by centrifugation, and resuspended in a small volume of fresh medium, and the density of viable cells was determined following Trypan Blue staining. […]
# OVCAR-3 cell line = test: Synergism assay; type: cell-based, human
# Excerpt: The human cancer cell lines DLD-1 (colorectal adenocarcinoma), LNCap (prostate carcinoma), and OVCAR-3 (ovarian carcinoma) were obtained from the American Type Culture Collection, Manassas, Va., U.S.A., and HL-60 (promyeloid myelocytic leukemia), MX-1 (breast carcinoma), P388, and P388ADR from the National Cancer Institute, Bethesda, Md., U.S.A. Carboplatin, doxorubicin, and melphalan were obtained from Sigma-Aldrich Chemical Company, St. Louis, Mo., U.S.A. The CellTiter-Glo assay kit was obtained from Promega Corporation, Madison, Wis., U.S.A., and the Cellular DNA Cytometric Analysis Reagent Kit from Roche Diagnostics Corporation, Indianapolis, Ind., U.S.A. Lambda DNA was obtained from New England Biolabs, Beverly, Mass., U.S.A., and SYBR-Gold from Molecular Probes, Inc., Eugene, Oreg., U.S.A. The DNeasy Tissue Kit was obtained from Qiagen Inc., Valencia, Calif., U.S.A., and AmpliTaq Gold DNA polymerase and PCR reagents from Applied Biosystems, Foster City, Calif., U.S.A. All products were used in accordance with manufacturer's directions. All assays were conducted in triplicate wells, with dimethyl sulfoxide (DMSO) solvent control. The extent of cell growth was expressed as a percentage of the signal from the solvent control wells.
# DLD-1 cells = test: Cell cycle analysis; type: cell-based, human; details: approximately IC75-85, one and two days, propidium iodide FACS
# [4] = tested on: in vitro cell culture and tumor biopsies; details: cited from earlier work
# [5] = tested on: M6709 human colon carcinoma cell line selected for resistance to doxorubicin; details: overexpresses GST P1-1; cited from earlier work
# Lambda DNA = test: DNA damage assay; type: biochemical; details: 100 μM and 300 μM, room temperature, one day, PCR amplification
# [6] = tested on: MCF-7 human breast carcinoma cell line selected for resistance to cyclophosphamide; details: overexpresses GST P1-1; cited from earlier work
smiles,measurement,setting,value
N[C@@H](CCC(=O)N[C@@H](CS(=O)(=O)CCOP(=O)(N(CCCl)CCCl)N(CCCl)CCCl)C(=O)N[C@@H](C(=O)O)c1ccccc1)C(=O)O [canfosfamide hydrochloride],clinical activity,[1]; colorectal and breast cancer,single agent antitumor activity
same,incidence of clinically significant hematological toxicity,[1]; patients treated,very low incidence
same,clinical activity,[1]; patients with non-small cell lung cancer and ovarian cancer,significant single agent antitumor activity and improvement in survival
same,potency versus level of GST P1-1,[2],positively correlated with the level of GST P1-1
"O=P(OCCSCCOP(=O)(N(CCCl)CCCl)N(CCCl)CCCl)(N(CCCl)CCCl)N(CCCl)CCCl [Compound 1CC, di[2-[[bis[bis(2-chloroethyl)amino]phosphinyl]oxy]ethyl]sulfide]",activity in cytotoxicity/growth inhibition assay,[3],active
"N[C@@H](CCC(=O)N[C@@H](CS(=O)(=O)CCOP(=O)(N(CCCl)CCCl)N(CCCl)CCCl)C(=O)N[C@@H](C(=O)O)c1ccccc1)C(=O)O [canfosfamide, L-γ-glutamyl-3-[[2-[[bis[bis(2-chloroethyl)amino]phosphinyl]oxy]ethyl]sulfonyl]-L-alanyl-2phenyl-(2R)-glycine]",synergism with carboplatin,OVCAR-3 cell line,synergistic
same,cell cycle effect (G2/M cycle block),DLD-1 cells,induced a G2/M cycle block
same,"cross-resistance to platinum, paclitaxel, doxorubicin and gemcitabine",[4],non-cross-resistant
same,potency in resistant line over parental cell line,[5],more potent
same,DNA damage activity,Lambda DNA,only marginal DNA damage activity
same,potency in resistant line over parental cell line,[6],more potent
